In assay [1] the target is T1, human dopamine D2L receptors (long isoform) (Homo sapiens, UniProt P14416).
T1 construct: expressed in transfected cells; host or cells: HEK-293
In words: Dopamine D2L receptor binding, displacement of [125I] iodospiperone. To be noted: footnote: ratio of the Ki values of the D3 and D2L binding tests. As to the method:
(§1) The substance to be tested was either dissolved in methanol/Chremophor® (BASF-AG) or in dimethyl sulfoxide and then diluted with water to the desired concentration.
(§2) Each assay mixture was run in triplicate.
The incubation buffer contained 50 mM tris, 120 mM NaCl, 5 mM KCl, 2 mM CaCl2, 2 mM MgCl2 and 0.1% bovine serum albumin. The buffer was adjusted to pH 7.4 with HCl.
(§3) After having been incubated at 25° C. for 60 minutes, the assay mixtures were filtered through a Whatman GF/B glass fiber filter under vacuum using a cell collecting device. The filters were transferred to scintillation viols using a filter transfer system. After 4 ml of Ultima Gold® (Packard) have been added, the samples were shaken for one hour and the radioactivity was then counted in a Beta-Counter (Packard, Tricarb 2000 or 2200CA). The cpm values were converted into dpm using a standard quench series and the program belonging to the instrument.
(§4) The inhibition curves were analyzed by means of iterative nonlinear regression analysis using the Statistical Analysis System (SAS) which is similar to the “LIGAND” program described by Munson and Rodbard.
In general terms: Displacement assays read how much labelled ligand stays bound in the presence of the test substance.

In assay [2] the target is T2, human dopamine D3 receptors (Homo sapiens, UniProt P35462).
T2 construct: expressed in transfected cells; host or cells: HEK-293
In words: Dopamine D3 receptor binding, displacement of [125I]-iodosulpride. The note with it: membranes of HEK-293 cells stably expressing human D3 receptors; 0.1 nM [125I]-iodosulpride; 25° C., 60 minutes. As to the method:
as §1, §2
The incubation buffer contained 50 mM tris, 120 mM NaCl, 5 mM KCl, 2 mM CaCl2, 2 mM MgCl2 and 0.1% bovine serum albumin, 10 μM […] and 0.1% ascorbic acid (prepared fresh daily). The buffer was adjusted to pH 7.4 with HCl.
as §3, §4

This is an account of results in patent publication US7320979B2, “N-[(piperazinyl)hetaryl]arylsulfonamide compounds” (Abbott GmbH & Co. KG., priority 2003, dated 2008).

Each structure is given as a SMILES string. pKi: −log10 of the molar value.

T1 sequence (P14416 whole entry, canonical isoform): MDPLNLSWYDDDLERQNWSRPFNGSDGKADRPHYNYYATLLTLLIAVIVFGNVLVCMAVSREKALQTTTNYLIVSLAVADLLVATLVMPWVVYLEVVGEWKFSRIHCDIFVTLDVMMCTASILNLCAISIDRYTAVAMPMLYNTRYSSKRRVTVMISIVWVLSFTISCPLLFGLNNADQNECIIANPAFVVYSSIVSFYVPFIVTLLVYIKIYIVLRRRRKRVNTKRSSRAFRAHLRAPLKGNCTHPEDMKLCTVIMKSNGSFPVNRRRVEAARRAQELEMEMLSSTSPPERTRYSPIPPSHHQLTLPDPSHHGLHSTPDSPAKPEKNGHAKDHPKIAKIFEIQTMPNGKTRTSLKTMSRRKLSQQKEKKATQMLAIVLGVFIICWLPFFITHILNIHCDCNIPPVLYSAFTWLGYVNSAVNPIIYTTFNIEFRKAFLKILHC
T2 sequence (P35462 whole entry): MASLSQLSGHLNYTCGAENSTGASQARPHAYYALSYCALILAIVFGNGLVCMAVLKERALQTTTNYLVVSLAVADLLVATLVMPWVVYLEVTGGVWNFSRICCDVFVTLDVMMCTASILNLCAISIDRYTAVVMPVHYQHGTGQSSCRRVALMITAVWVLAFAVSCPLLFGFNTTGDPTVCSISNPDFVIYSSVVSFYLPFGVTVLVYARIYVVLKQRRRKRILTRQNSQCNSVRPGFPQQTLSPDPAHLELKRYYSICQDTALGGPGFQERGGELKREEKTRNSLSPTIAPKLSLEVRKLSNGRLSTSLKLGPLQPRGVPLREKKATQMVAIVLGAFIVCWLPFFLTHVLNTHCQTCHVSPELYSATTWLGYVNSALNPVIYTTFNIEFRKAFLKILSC

For `C=CCN1CCN(c2ccc(NS(=O)(=O)c3ccc(C(C)C)cc3)cn2)CC1C.Cl` (racemic) [Example 13, N-[6-(4-Allyl-3-methylpiperazin-1-yl)pyridin-3-yl]-4-isopropylbenzenesulfonamide hydrochloride], the “Selectivity vs. D2L” value in assay [1] worked out at 131. Further, the pKi (usually the negative decadic logarithm of the Ki, by convention in mol/L) in assay [2] was 8.44.

With `CCCN1CCN(c2ccc(NS(=O)(=O)c3ccc(C(C)C)cc3)cn2)CC1C.Cl` (racemic) [Example 14, 4-Isopropyl-N-[6-(3-methyl-4-propylpiperazin-1-yl)pyridin-3-yl]benzenesulfonamide hydrochloride], in assay [1], the “Selectivity vs. D2L” value was 81. In assay [2], this compound gave a pKi of 8.60.

Regarding `C=CCN1CCN(c2ccc(NS(=O)(=O)c3ccc(C(C)C)cc3)cn2)CC1` [Example 1, N-[6-(4-Allylpiperazin-1-yl)pyridin-3-yl]-4-isopropylbenzenesulfonamide], in assay [1], the “Selectivity vs. D2L” value was found to be 232. In assay [2], the pKi was 8.52.

On to `C=CCN1CCN(c2ccc(NS(=O)(=O)c3ccc(CCC)cc3)cn2)CC1` [Example 2, N-[6-(4-Allylpiperazin-1-yl)pyridin-3-yl]-4-propylbenzenesulfonamide], for which the “Selectivity vs. D2L” value in assay [1] was 25. In assay [2], this compound gave a pKi of 8.26.

For `C=CCN1CCN(c2ccc(NS(=O)(=O)c3ccc(CCCC)cc3)cn2)CC1` [Example 3, N-[6-(4-Allylpiperazin-1-yl)pyridin-3-yl]-4-butylbenzenesulfonamide], the “Selectivity vs. D2L” value in assay [1] was determined as 15. This compound also gave a pKi in assay [2] of 8.23.

Take `C=CCN1CCN(c2ccc(NS(=O)(=O)c3ccc(CC)cc3)cn2)CC1.Cl` [Example 5, N-[6-(4-Allylpiperazin-1-yl)pyridin-3-yl]-4-ethylbenzenesulfonamide hydrochloride]: in assay [1], the “Selectivity vs. D2L” value is recorded as 108. The pKi in assay [2] is 7.94.

`C=CCN1CCN(c2ccc(NS(=O)(=O)c3ccc(C=C)cc3)cn2)CC1.Cl` [Example 6, N-[6-(4-Allylpiperazin-1-yl)pyridin-3-yl]-4-vinylbenzenesulfonamide hydrochloride]: the “Selectivity vs. D2L” value in assay [1] was determined as 169. This compound also showed a pKi in assay [2] of 8.01.

On to `CC(C)c1ccc(S(=O)(=O)Nc2ccc(N3CCNCC3)nc2)cc1` [Example 7, 4-Isopropyl-N-(6-piperazin-1-ylpyridin-3-yl)benzenesulfonamide], for which, in assay [1], the “Selectivity vs. D2L” value worked out at 68. Further, in assay [2], the pKi was 7.94.

As for `CC(C)c1ccc(S(=O)(=O)Nc2ccc(N3CCN(C)CC3)nc2)cc1` [Example 10, 4-Isopropyl-N-[6-(4-methylpiperazin-1-yl)pyridin-3-yl]benzenesulfonamide], the “Selectivity vs. D2L” value in assay [1] stood at 93. Besides, in assay [2], the pKi is 8.12.

Consider `CCN1CCN(c2ccc(NS(=O)(=O)c3ccc(C(C)C)cc3)cn2)CC1.Cl` [Example 11, N-[6-(4-Ethylpiperazin-1-yl)pyridin-3-yl]-4-isopropylbenzenesulfonamide hydrochloride], for which the “Selectivity vs. D2L” value in assay [1] was 77. For the same compound, the pKi in assay [2] is 8.21.

Consider `C=CCN1CCN(c2ccc(NS(=O)(=O)c3ccc(C(C)C)cc3)cn2)C[C@@H]1C` [Example 13a, N-{6-[4-Allyl-(3S)-methylpiperazin-1-yl]pyridin-3-yl}-4-isopropylbenzenesulfonamide], for which the “Selectivity vs. D2L” value in assay [1] was determined as 96. Moreover, the pKi in assay [2] is 8.57.

`CCCN1CCN(c2ccc(NS(=O)(=O)c3ccc(C(C)C)cc3)cn2)C[C@@H]1C` [Example 14a, 4-Isopropyl-N-{6-[(3S)-methyl-4-propylpiperazin-1-yl]pyridin-3-yl}benzenesulfonamide]: the “Selectivity vs. D2L” value in assay [1] is given as 184. In assay [2], this compound had a pKi of 8.82.

For `C=CCN1CCN(c2ncc(NS(=O)(=O)c3ccc(C(C)C)cc3)cn2)CC1` [Example 16, N-[2-(4-Allylpiperazin-1-yl)pyrimidin-5-yl]-4-isopropylbenzenesulfonamide], in assay [1], the “Selectivity vs. D2L” value was 131. In addition, the pKi in assay [2] was 8.42.

Turning to `CCCN1CCN(c2ncc(NS(=O)(=O)c3ccc(C(C)C)cc3)cn2)CC1.Cl` [Example 17, 4-Isopropyl-N-[2-(4-propylpiperazin-1-yl)pyrimidin-5-yl]benzenesulfonamide hydrochloride], in assay [1], the “Selectivity vs. D2L” value was 148. This compound had a pKi in assay [2] of 8.09.

Turning to `C=CCN1CCN(c2ccc(NS(=O)(=O)c3ccc(Br)cc3)cn2)CC1.Cl` [Example 19, N-[2-(4-Allylpiperazin-1-yl)pyridin-5-yl]-4-bromobenzenesulfonamide hydrochloride], the “Selectivity vs. D2L” value in assay [1] amounted to 91. For the same compound, in assay [2], the pKi was 7.43.

For the compound `CCCN1C(C)CN(c2ncccc2NS(=O)(=O)c2ccc(C(C)C)cc2)CC1C.O=C(O)C(F)(F)F` (stereo not drawn) [Example 22, 4-Isopropyl-N-[2-(3,5-dimethyl-4-propylpiperazin-1-yl)pyridin-3-yl]benzenesulfonamide trifluoroacetate], the “Selectivity vs. D2L” value in assay [1] stood at 22. For the same compound, the pKi in assay [2] is 7.66.

As for `C=CCN1C(C)CN(c2ccc(NS(=O)(=O)c3ccc(C(C)C)cc3)cn2)CC1C.Cl` (stereo not drawn) [Example 24, N-[6-(4-Allyl-3,5-dimethylpiperazin-1-yl)pyridin-3-yl]-4-isopropylbenzenesulfonamide hydrochloride], in assay [1], the “Selectivity vs. D2L” value is listed as 47. Besides, in assay [2], the pKi was 7.60.

With `CCCN1CCN(c2ccc(NS(=O)(=O)c3ccc(Br)cc3)cn2)CC1` [Example 27, 4-Bromo-N-[6-(4-propylpiperazin-1-yl)pyridin-3-yl]-benzenesulfonamide], in assay [1], the “Selectivity vs. D2L” value was 55. Further, in assay [2], the pKi was 7.67.

As for `CCCN1CCN(c2ccc(NS(=O)(=O)c3ccc(Cl)cc3)cn2)CC1` [Example 28, 4-Chloro-N-[6-(4-propylpiperazin-1yl)pyridin-3-yl]-benzenesulfonamide], the “Selectivity vs. D2L” value in assay [1] came to 67. The pKi in assay [2] was 7.60.

As for `CCCN1CC2CC1CN2c1ccc(NS(=O)(=O)c2ccc(C(C)C)cc2)cn1.Cl` (stereo not drawn) [Example 29, 4-Isopropyl-N-[6-(5-propyl-2,5-diazabicyclo[2.2.1]hept-2-yl)pyridin-3-yl]-benzenesulfonamide hydrochloride], the “Selectivity vs. D2L” value in assay [1] is on record as 31. In assay [2], this compound gave a pKi of 7.77.

For `C=CCN1CC2CC1CN2c1ccc(NS(=O)(=O)c2ccc(C(C)C)cc2)cn1.Cl` (stereo not drawn) [Example 30, N-[6-(5-Allyl-2,5-diazabicyclo[2.2.1]hept-2-yl)pyridin-3-yl]-4-isopropylbenzenesulfonamide hydrochloride], the “Selectivity vs. D2L” value in assay [1] is reported as 17. The compound further gave a pKi in assay [2] of 7.95.

Turning to `C=Cc1ccc(S(=O)(=O)Nc2ccc(N3CCN(CCC)CC3)nc2)cc1.Cl` [Example 31, N-[6-(4-Propylpiperazin-1-yl)pyridin-3-yl]-4-vinylbenzenesulfonamide hydrochloride], in assay [1], the “Selectivity vs. D2L” value is reported as 96. In assay [2], this compound had a pKi of 7.85.

Regarding `CC(C)c1ccc(S(=O)(=O)Nc2ccc(N3CCN(CCCF)CC3)nc2)cc1.Cl` [Example 32, N-{6-[4-(3-Fluoropropyl)piperazin-1-yl]pyridin-3-yl}-4-isopropylbenzenesulfonamide hydrochloride], the “Selectivity vs. D2L” value in assay [1] was found to be 74. Further, in assay [2], the pKi was 7.77.

For `CCCN1CCN(c2ccc(NS(=O)(=O)c3ccc(CC)cc3)cn2)CC1.Cl` [Example 34, 4-Ethyl-N-[6-(4-propylpiperazin-1-yl)pyridin-3-yl]-benzenesulfonamide hydrochloride], the “Selectivity vs. D2L” value in assay [1] is 73. This compound had a pKi in assay [2] of 8.02.
